From ChEMBL document CHEMBL1799962, “Indolin-2-one p38α inhibitors I: design, profiling and crystallographic binding mode” (Bioorg Med Chem Lett, 2011)
Values after ≈ are worked out from the molar mass of the structure shown.

What was measured:
[1] = Apparent permeability from apical to basolateral side in human Caco2 cells at 12.5 uM; format: ADME, cell-based; settings: Caco-2
[2] = Apparent permeability from basolateral to apical side in human Caco2 cells at 12.5 uM; format: ADME, cell-based; settings: Caco-2
[3] = Thermodynamic solubility of the compound in aqueous buffer at pH 7.4 at 37 degC by HPLC-UV analysis; format: physicochemical; settings: read-out: Therm_solubility
[4] = Primary phase half life in rat at 1 mg/kg, iv; format: ADME, organism-based; set-up: dose 1 mg/kg, route intravenous; settings: in vivo, read-out: alphat1/2
[5] = Terminal half life in rat at 1 mg/kg, iv; format: ADME, organism-based; set-up: dose 1 mg/kg, route intravenous; settings: in vivo, read-out: beta t1/2 (converted)
[6] = Cmax in rat at 1 mg/kg, iv; format: ADME, organism-based; set-up: dose 1 mg/kg, route intravenous; settings: in vivo
[7] = Clearance in rat at 1 mg/kg, iv; format: ADME, organism-based; set-up: dose 1 mg/kg, route intravenous; settings: in vivo
[8] = AUC (0 to infinity) in rat at 1 mg/kg, iv; format: ADME, organism-based; set-up: time infinity, dose 1 mg/kg, route intravenous; settings: plasma
[9] = Volume of distribution at steady state in rat at 1 mg/kg, iv; format: ADME, organism-based; set-up: dose 1 mg/kg, route intravenous; settings: in vivo, read-out: Vdss
[10] = Cmax in rat at 10 mg/kg, po; format: ADME, organism-based; set-up: dose 10 mg/kg, route oral; settings: in vivo
[11] = Oral bioavailability in rat at 10 mg/kg; format: ADME, organism-based; settings: in vivo

Papp A→B at 12.5 µM [1]: 18 ×10⁻⁶ cm/s | Papp B→A at 12.5 µM [2]: 10 ×10⁻⁶ cm/s | solubility thermodynamic [3]: 3 µg/mL (≈ 8.32 µM) | half-life [4]: < 1 h | half-life [5]: 5.3 h | Cmax [6]: 2000 ng/mL | clearance [7]: 6.6 mL/min/kg | AUC(0-inf) [8]: 2530 ng·h/mL | Vd [9]: 0.8 L/kg | Cmax [10]: 367 ng/mL | bioavailability [11]: 10%
SMILES: Cc1ccc(C(=O)NC2CC2)cc1-c1ccc2c(c1)NC(=O)C21CCCC1
